Results taken from US20080045514A1 (Cytovia, Inc., priority 2006, published 2008).

Experiments:
Assay type in all cases: cell-based
[1] = system: human Burkitt's lymphoma cell line Namalwa; assay: Caspase cascade activation (EC50), Namalwa; settings: Homo sapiens, Burkitts lymphoma cell; Namalwa cells; caspase cascade activation; read-out: caspase potency (EC50) Namalwa
Procedure, shortened: (§1)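 EC50 values derive from a sigmoidal fit of net fluorescence (3 h reading minus control T=0 background) relative to untreated control. The 3 h room-temperature read used 14 μM DEVD-R110 substrate with lysolecithin, DTT and pH 7.2 PIPES buffer at 485/530 nm. Beforehand, cells were treated 48 h at 37° C with 0.016-10 μM final compound.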

[2] = system: human cancer cell line H1299; assay: Caspase cascade activation (EC50), H1299; settings: NCI-H1299, H1299 cells, read-out: caspase potency (EC50) H1299
Protocol: (§2) Human breast cancer cell lines T-47D, human hepatocellular carcinoma cell line SNU398, human colon carcinoma cell line HCT116, human cancer cell line H1299, human Burkitt's lymphoma cell line Namalwa, human lymphoma cell line Raji, and human B cell lymphoblastoid cell line Ramos were grown according to media component mixtures designated by American Type Culture Collection+10% FCS (Invitrogen Corporation), in a 5% CO2-95% humidity incubator at 37° C. T-47D and H1299 cells were maintained at a cell density between 50 and 80% confluency at a cell density of 0.1 to 0.6×10^6 cells/mL. Cells were harvested at 600×g and resuspended at 0.65×10^6 cells/mL into appropriate media+10% FCS. An aliquot of 22.5 μL of cells was added to a well of a 384-well microtiter plate containing 2.5 μL of a 10% DMSO in RPMI-1640 media solution containing 0.16 to 100 μM of 3-(2-chlorophenyl)-6-(3,4-methylenedioxyphenyl)-7H-[1,2,4]triazolo[3,4-b][1,3,4]thiadiazine or other test compound (0.016 to 10 μM final). An aliquot of 22.5 μL of cells was added to a well of a 384-well microtiter plate containing 2.5 μL of a 10% DMSO in RPMI-1640 media solution without test compound as the control sample. The samples were mixed by agitation and then incubated at 37° C. for 48 h in a 5% CO2-95% humidity incubator. After incubation, the samples were removed from the incubator and 25 μL of a solution containing 14 μM of N—(Ac-DEVD)-N′-ethoxycarbonyl-R110 (SEQ ID No.:1) fluorogenic substrate (Cytovia, Inc.; WO99/18856), 20% sucrose (Sigma), 20 mM DTT (Sigma), 200 mM NaCl (Sigma), 40 mM Na PIPES buffer pH 7.2 (Sigma), and 500 μg/mL lysolecithin (Calbiochem) was added. The samples were mixed by agitation and incubated at room temperature. Using a fluorescent plate reader (Model SPECTRAfluor Plus, Tecan), an initial reading (T=0) was made approximately 1-2 min after addition of the substrate solution, employing excitation at 485 nm and emission at 530 nm, to determine the background fluorescence of the control sample. After the 3 h incubation, the samples were read for fluorescence as above (T=3 h). Calculation: The Relative Fluorescence Unit values (RFU) were used to calculate the sample readings as follows: RFU(T=3H)−Control RFU(T=0)=Net RFU(T=3h) The activity of caspase cascade activation was determined by the ratio of the net RFU value for 3-(2-chlorophenyl)-6-(3,4-methylenedioxyphenyl)-7H-[1,2,4]triazolo[3,4-b][1,3,4]thiadiazine (Example P) or other test compound to that of control samples. The EC50 (nM) was determined by a sigmoidal dose-response calculation (Prism 3.0, GraphPad Software Inc.).

[3] = system: human colon carcinoma cell line HCT116; assay: Caspase cascade activation (EC50), HCT116; settings: Homo sapiens, HCT-116; HCT116 cells; caspase cascade activation; read-out: caspase potency (EC50) HCT116
Procedure, shortened: as §1

[4] = system: human lymphoma cell line Raji; assay: Caspase cascade activation (EC50), Raji; settings: Homo sapiens, RAJI cells, read-out: caspase potency (EC50) RAJI
Protocol: as §2

[5] = system: human hepatocellular carcinoma cell line SNU398; assay: Caspase cascade activation (EC50), SNU398; settings: Homo sapiens, SNU-398; SNU398 cells; caspase cascade activation; read-out: caspase potency (EC50) SNU398
Procedure, shortened: as §1

[6] = system: human B cell lymphoblastoid cell line Ramos; assay: Caspase cascade activation (EC50), Ramos; settings: Homo sapiens, RAMOS cells, read-out: caspase potency (EC50) RAMOS
Protocol: as §2

[7] = system: human breast cancer cell line T-47D; assay: Caspase cascade activation (EC50), T-47D; settings: Homo sapiens; T47D cells; caspase cascade activation; read-out: caspase potency (EC50) T47D
Procedure, shortened: as §1

Row | Structure (SMILES) | EC50 [1] [µM] | EC50 [2] [µM] | EC50 [3] [µM] | EC50 [4] [µM] | EC50 [5] [µM] | EC50 [6] [µM] | EC50 [7] [µM]
1 | COc1cccc(-c2nnc3n2N=C(c2ccc4c(c2)OCO4)CS3)c1 [Example A1, 3-(3-Methoxyphenyl)-6-(3,4-methylenedioxyphenyl)-7H-[1,2,4]triazolo[3,4-b][1,3,4]thiadiazine] | 0.426 | 2.49 | 0.546 | 0.507 | 0.39 | 0.447 | 0.5
2 | COc1cccc(-c2nnc3n2N=C(c2ccc4ccccc4c2)CS3)c1 [Example B1, 3-(3-Methoxyphenyl)-6-(2-naphthyl)-7H-[1,2,4]triazolo[3,4-b][1,3,4]thiadiazine] | – | 1.71 | 1.31 | – | 0.93 | – | 1.42
3 | CCOc1ccc(-c2nnc3n2N=C(c2ccc4c(c2)OCO4)CS3)cc1 [Example H2, 3-(4-Ethoxyphenyl)-6-(3,4-methylenedioxyphenyl)-7H-[1,2,4]triazolo[3,4-b][1,3,4]thiadiazine] | > 1 | > 1 | > 1 | > 1 | > 1 | 0.542 | > 1
4 | Clc1ccc(-c2nnc3n2N=C(c2ccc4c(c2)OCO4)CS3)c(Cl)c1 [Example I1, 3-(2,4-Dichlorophenyl)-6-(3,4-methylenedioxyphenyl)-7H-[1,2,4]triazolo[3,4-b][1,3,4]thiadiazine] | 0.221 | 1.38 | 0.254 | 0.171 | 0.172 | 0.15 | 0.278
5 | CC(C)Oc1cccc(-c2nnc3n2N=C(c2ccc4c(c2)OCO4)CS3)c1 [Example R1, 3-(3-Isopropyloxyphenyl)-6-(3,4-methylenedioxyphenyl)-7H-[1,2,4]triazolo[3,4-b][1,3,4]thiadiazine] | > 1 | > 10 | > 10 | > 1 | 5.6 | > 1 | > 10
6 | Cc1cccc(-c2nnc3n2N=C(c2ccc4ccccc4c2)CS3)c1 [U, 3-(3-Methylphenyl)-6-(2-naphthyl)-7H-[1,2,4]triazolo[3,4-b][1,3,4]thiadiazine] | – | 3.57 | – | – | – | – | 5.54

Further lines, results first:

Row | EC50 [1] [µM] | EC50 [2] [µM] | EC50 [3] [µM] | EC50 [4] [µM] | EC50 [5] [µM] | EC50 [6] [µM] | EC50 [7] [µM] | Structure (SMILES)
7 | 0.106 | 0.106 | 0.04 | – | 0.03 | – | 0.175 | CCOc1ccc(C2=Nn3c(nnc3-c3ccccc3OC)SC2)cc1 [Example B2, 3-(2-Methoxyphenyl)-6-(4-ethoxyphenyl)-7H-[1,2,4]triazolo[3,4-b][1,3,4]thiadiazine]
8 | – | 2.71 | 1.5 | – | 0.778 | – | 2.3 | CCOc1cccc(-c2nnc3n2N=C(c2ccc(OC)cc2)CS3)c1 [Example D1, 3-(3-Ethoxyphenyl)-6-(4-methoxyphenyl)-7H-[1,2,4]triazolo[3,4-b][1,3,4]thiadiazine]
9 | – | 2.01 | 0.161 | – | 0.041 | – | 0.553 | CCOc1ccc(C2=Nn3c(nnc3-c3ccc(Cl)cc3Cl)SC2)cc1 [Example H1, 3-(2,4-Dichlorophenyl)-6-(4-ethoxyphenyl)-7H-[1,2,4]triazolo[3,4-b][1,3,4]thiadiazine]
10 | – | 1.82 | 1.58 | – | 1.01 | – | 2.49 | CCOc1ccc(C2=Nn3c(nnc3-c3ccc(OC)cc3)SC2)cc1 [I, 3-(4-Methoxyphenyl)-6-(4-ethoxyphenyl)-7H-[1,2,4]triazolo[3,4-b][1,3,4]thiadiazine]
11 | – | 1.01 | 0.279 | – | 0.129 | – | 1.33 | CCOc1ccc(C2=Nn3c(nnc3-c3ccccc3Cl)SC2)cc1 [O, 3-(2-Chlorophenyl)-6-(4-ethoxyphenyl)-7H-[1,2,4]triazolo[3,4-b][1,3,4]thiadiazine]
12 | – | 2.33 | 0.693 | – | 0.331 | – | 2.81 | CCOc1ccc(C2=Nn3c(nnc3-c3cccc(OC)c3)SC2)cc1 [Z, 3-(3-Methoxyphenyl)-6-(4-ethoxyphenyl)-7H-[1,2,4]triazolo[3,4-b][1,3,4]thiadiazine]
